Test results published in publication PMC8143083, “Effective Activation of BKCa Channels by QO-40 (5-(Chloromethyl)-3-(Naphthalen-1-yl)-2-(Trifluoromethyl)Pyrazolo [1,5-a]pyrimidin-7(4H)-one), Known to Be an Opener of KCNQ2/Q3 Channels” (Pharmaceuticals, 2021).

Biological target: T1, α-hSlo (BKCa channel α-subunit) (Homo sapiens, UniProt Q12791)
T1 construct: gene KCNMA1; α-hSlo expressed in HEK293T cells
Assay: patch clamp of α-hSlo-expressing HEK293T cells (Figure S1)
Assay type: cell-based

T1 sequence (Q12791 whole entry): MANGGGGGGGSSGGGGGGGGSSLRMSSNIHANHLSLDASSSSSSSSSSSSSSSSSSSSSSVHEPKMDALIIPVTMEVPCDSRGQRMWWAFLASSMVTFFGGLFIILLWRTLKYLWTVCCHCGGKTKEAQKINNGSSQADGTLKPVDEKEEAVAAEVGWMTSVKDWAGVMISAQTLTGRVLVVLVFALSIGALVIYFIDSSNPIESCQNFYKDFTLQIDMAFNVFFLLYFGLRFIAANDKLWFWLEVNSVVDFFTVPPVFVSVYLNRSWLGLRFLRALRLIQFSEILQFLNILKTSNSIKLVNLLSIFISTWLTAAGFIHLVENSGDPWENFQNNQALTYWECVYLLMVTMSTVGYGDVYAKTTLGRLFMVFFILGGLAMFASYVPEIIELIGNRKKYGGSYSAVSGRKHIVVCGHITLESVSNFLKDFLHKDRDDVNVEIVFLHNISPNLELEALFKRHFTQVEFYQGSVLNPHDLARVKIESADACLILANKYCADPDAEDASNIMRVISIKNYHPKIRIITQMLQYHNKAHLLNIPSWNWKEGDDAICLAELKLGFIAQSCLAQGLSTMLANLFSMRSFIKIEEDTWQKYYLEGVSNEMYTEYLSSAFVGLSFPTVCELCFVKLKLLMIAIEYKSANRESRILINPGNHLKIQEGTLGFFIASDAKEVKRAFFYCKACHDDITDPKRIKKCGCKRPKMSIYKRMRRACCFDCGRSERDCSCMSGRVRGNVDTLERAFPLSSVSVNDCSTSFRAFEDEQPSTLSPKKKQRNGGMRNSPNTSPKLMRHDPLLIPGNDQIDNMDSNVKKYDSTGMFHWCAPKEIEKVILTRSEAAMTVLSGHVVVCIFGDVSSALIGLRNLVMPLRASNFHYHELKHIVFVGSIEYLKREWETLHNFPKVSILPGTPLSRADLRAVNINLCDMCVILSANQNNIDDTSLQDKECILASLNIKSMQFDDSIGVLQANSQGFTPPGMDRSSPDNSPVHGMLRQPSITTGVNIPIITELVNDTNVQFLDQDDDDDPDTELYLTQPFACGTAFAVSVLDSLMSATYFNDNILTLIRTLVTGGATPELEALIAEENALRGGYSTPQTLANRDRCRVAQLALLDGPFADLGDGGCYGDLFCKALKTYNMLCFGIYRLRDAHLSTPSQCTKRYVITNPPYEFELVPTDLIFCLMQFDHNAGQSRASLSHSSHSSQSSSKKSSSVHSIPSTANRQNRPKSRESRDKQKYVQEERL

For `O=c1cc(CCl)nc2c(-c3cccc4ccccc34)c(C(F)(F)F)[nH]n12` [QO-40, 5-(chloromethyl)-3-(naphthalen-1-yl)-2-(trifluoromethyl)pyrazolo[1,5-a]pyrimidin-7(4H)-one], the “patch clamp of α-hSlo-expressing HEK293T cells (Figure S1)” value was “In HEK293T cells expressing α-hSlo, QO-40 stimulated BKCa channel activity”.
